Data set [1] has as its system primary human hepatocytes (PHH). Briefly: MTT cytotoxicity in primary human hepatocytes, with or without KTZ or RIF pre-incubation. In kind it is cell-based. The settings on record: 1 mM DCF. As to the method: All of the compounds were dissolved in DMSO with the final concentration of DMSO was less than 0.2% in the incubation system. The MTT assay was employed and the optical density (OD) value was measured at 490 nm with a microplate reader (BioTek Instruments, Winooski, VT, United States).

In data set [2] the test system is CYP3A4 OE HepG2 cells. As to the kind of experiment: MTT cytotoxicity in stable CYP3A4 over-expressed HepG2 cells. It is filed as cell-based, human. The settings on record: DCF 400–2000 μM. As to the method: (§1) Cells were allowed to grow in the selection medium for 4 weeks, at which time individual clonal expansions (clones) were visible. Each clone was transferred and tested for enzymatic activity by a quantitative polymerase chain reaction (Q-PCR), western blot analysis and determining hydroxylation of testosterone.
(§2) The neutral red assay was performed to assess cell viability of NIH3T3 cells. […] After incubation, the neutral red reagent was added following the manufacturer’s instruction. The OD value was detected at 570 nm. The WT and CYP3A4 OE HepG2 and L02 were treated in the same manner as NIH3T3 cells, and cell viability was measured by MTT assay. Cell viability was calculated with the following equation (Eq. 1). OD value is presented as the mean ± SD from three independent replicate experiments.
(§3) Cell viability (%) =[…]

Data set [3] deals with CYP3A4 OE L02 cells. Briefly: MTT cytotoxicity in stable CYP3A4 over-expressed L02 cells. It is filed as cell-based, human. The settings on record: DCF 400–2000 μM. The protocol:
as §1, §2, §3

The subject of data set [4] is ICR mice. As to the kind of experiment: Liver injury in mice, group A (DEX induction): liver/body weight, ALT, AST, H&E. It is filed as in vivo. The settings on record: individual mouse, liver H&E. As to the method:
(§4) Male adult ICR mice (20 ± 2 g) were supplied by the Model Animal Research Center of Nanjing University (Nanjing, China). All experiments and animal care were conducted in accordance with the Provision and General Recommendation of Chinese Experimental Animals Administration Legislation and were approved by the Science and Technology Department of Jiangsu Province [license number: SYXK (SU) 2016-0011]. The mice were housed in a controlled temperature and humidity of 22 ± 2°C and 55 ± 5%, respectively, and maintained on a 12 h light/dark cycle with free access to food and water. Mice were fastened for 12 h and free to water before treatment.
(§5) Mice were randomly assigned into two groups for different treatment. The protocol was conducted as previously described with minor modification ([Iida et al., 2015]; [Li W. et al., 2016]). […] Blood and liver tissues were collected in 24 h following treatment. All the livers were quickly removed and the left lateral liver lobes were used for histopathological examinations.
The collected blood samples were allowed to clot at room temperature, followed by centrifugation at 4°C, 1,000 × g for 10 min. […] The sections were stained with hematoxylin and eosin (H&E), and finally evaluated by a pathologist using an optical microscope.

In data set [5] the test system is ICR mice. Briefly: Liver injury in mice, group B (KTZ inhibition): liver/body weight, ALT, AST, H&E. In kind it is in vivo. The following applies: individual mouse, liver H&E. As to the method: as §4, §5
The collected blood samples were allowed to clot at room temperature, followed by centrifugation at 4°C, 1,000 × g for 10 min. The resulting sera were immediately sent for alanine transaminase (ALT) and aspartate aminotransferase (AST) assays to the laboratory in Jiangsu Province Hospital of Traditional Chinese and Western Medicine (Nanjing, China) on ice. The testing laboratory was authenticated with ISO15189 and the assay was performed in a Roche Cobas 8000 (ISE/701/701/502) automatic biochemical analyzer. Liver tissues were immediately fixed in 4% paraformaldehyde for at least 24 h, then paraffin-processed, and sectioned into 3-μm thick slices. The sections were stained with hematoxylin and eosin (H&E), and finally evaluated by a pathologist using an optical microscope.

Data set [6] deals with CYP3A11. Briefly: Hepatic CYP3A11 expression in mice by Q-PCR and Western blot. In kind it is in vivo, mouse. The settings on record: mice liver, KTZ 75 mg/kg i.p., vs control. On the technique in general: A western blot detects proteins with antibodies after separation by electrophoresis.

Each structure is given as a SMILES string. “And” between values parts separate entries of the source, which are not always exact repeats. Identical values can stand only once.

`O=C(O)Cc1ccccc1Nc1c(Cl)cccc1Cl` [DCF, diclofenac sodium]: in data set [1] (24 h, KTZ 10 μM), the “cell viability of PHH in the presence of KTZ” value is recorded as “remarkably increased”. In addition, the “cell viability of PHH pre-incubated with RIF” value in data set [1] (RIF 20 μM) was “significantly decreased”. The “cell viability in CYP3A4 OE HepG2 cells compared with WT cells” value in data set [2] is recorded as “greatly decreased”. Further, the “cell viability in CYP3A4 OE L02 cells compared with WT cells” value in data set [3] is on record as “greatly decreased”.
Turning to `C[C@@H]1C[C@H]2[C@@H]3CCC4=CC(=O)C=C[C@]4(C)[C@@]3(F)[C@@H](O)C[C@]2(C)[C@@]1(O)C(=O)CO` [DEX, Dexamethasone], in data set [4], the “Congestion (histopathologic score)” value worked out at 1; the “Scores (histopathologic, total)” value is 0 and 1.
For `CC(=O)N1CCN(c2ccc(OCC3COC(Cn4ccnc4)(c4ccc(Cl)cc4Cl)O3)cc2)CC1` (stereo not shown) [KTZ, ketoconazole], in data set [5], the “Inflammatory cells (histopathologic score)” value was 0.5; the “Scores (histopathologic, total)” value is 0 and 0.5; the “hepatocytes Degeneration (histopathologic score)” value came to 0.5. In data set [6], the “decrease in CYP3A11 expression” value is on record as “about 20%”.

These data come from paper PMC6156363, “The Modulatory Role of CYP3A4 in Dictamnine-Induced Hepatotoxicity” (Frontiers in Pharmacology, 2018).
